Measurements: ChEMBL document CHEMBL1144495, “Tri-, tetra- and heptacyclic perylene analogues as new potential antineoplastic agents based on DNA telomerase inhibition” (Bioorg Med Chem, 2007)
The source made the active and inactive calls. No cut-off for these calls is given here.

Experiments:
NCI-H460 = assay: Cytotoxicity against human H460 cells by MTT assay; assay type: cell-based
[1] = molecular target: DNA polymerase I, thermostable (Thermus aquaticus, UniProt P19821); assay: Inhibition of Taq polymerase
Sequence of DNA polymerase I, thermostable (P19821 whole entry): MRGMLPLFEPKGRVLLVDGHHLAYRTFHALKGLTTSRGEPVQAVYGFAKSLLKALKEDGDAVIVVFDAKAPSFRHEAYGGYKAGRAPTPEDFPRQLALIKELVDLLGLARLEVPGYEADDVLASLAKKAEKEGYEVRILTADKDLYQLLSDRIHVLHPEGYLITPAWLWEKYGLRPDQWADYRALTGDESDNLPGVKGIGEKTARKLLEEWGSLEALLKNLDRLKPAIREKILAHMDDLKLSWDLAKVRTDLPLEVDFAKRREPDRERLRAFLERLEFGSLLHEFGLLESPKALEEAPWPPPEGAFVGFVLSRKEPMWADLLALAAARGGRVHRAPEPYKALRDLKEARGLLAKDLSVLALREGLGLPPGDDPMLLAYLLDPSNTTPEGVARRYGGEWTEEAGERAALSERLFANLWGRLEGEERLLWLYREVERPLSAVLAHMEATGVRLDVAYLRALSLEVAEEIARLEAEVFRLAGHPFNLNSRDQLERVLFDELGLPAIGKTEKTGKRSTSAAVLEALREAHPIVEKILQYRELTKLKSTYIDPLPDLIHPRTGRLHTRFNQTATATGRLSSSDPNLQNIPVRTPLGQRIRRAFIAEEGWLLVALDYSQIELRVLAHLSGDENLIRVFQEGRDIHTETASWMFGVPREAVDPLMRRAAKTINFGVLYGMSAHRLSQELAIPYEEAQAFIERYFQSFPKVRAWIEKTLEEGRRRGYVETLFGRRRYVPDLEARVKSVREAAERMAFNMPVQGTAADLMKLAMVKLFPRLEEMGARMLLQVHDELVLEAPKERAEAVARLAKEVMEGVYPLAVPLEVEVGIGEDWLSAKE

[2] = molecular target: T1, Telomerase reverse transcriptase (Homo sapiens, UniProt O14746); assay: Inhibition of telomerase in JR8 cell extract at 0 to 40 uM by TRAP assay; assay type: cell-free
T1 sequence (O14746 whole entry): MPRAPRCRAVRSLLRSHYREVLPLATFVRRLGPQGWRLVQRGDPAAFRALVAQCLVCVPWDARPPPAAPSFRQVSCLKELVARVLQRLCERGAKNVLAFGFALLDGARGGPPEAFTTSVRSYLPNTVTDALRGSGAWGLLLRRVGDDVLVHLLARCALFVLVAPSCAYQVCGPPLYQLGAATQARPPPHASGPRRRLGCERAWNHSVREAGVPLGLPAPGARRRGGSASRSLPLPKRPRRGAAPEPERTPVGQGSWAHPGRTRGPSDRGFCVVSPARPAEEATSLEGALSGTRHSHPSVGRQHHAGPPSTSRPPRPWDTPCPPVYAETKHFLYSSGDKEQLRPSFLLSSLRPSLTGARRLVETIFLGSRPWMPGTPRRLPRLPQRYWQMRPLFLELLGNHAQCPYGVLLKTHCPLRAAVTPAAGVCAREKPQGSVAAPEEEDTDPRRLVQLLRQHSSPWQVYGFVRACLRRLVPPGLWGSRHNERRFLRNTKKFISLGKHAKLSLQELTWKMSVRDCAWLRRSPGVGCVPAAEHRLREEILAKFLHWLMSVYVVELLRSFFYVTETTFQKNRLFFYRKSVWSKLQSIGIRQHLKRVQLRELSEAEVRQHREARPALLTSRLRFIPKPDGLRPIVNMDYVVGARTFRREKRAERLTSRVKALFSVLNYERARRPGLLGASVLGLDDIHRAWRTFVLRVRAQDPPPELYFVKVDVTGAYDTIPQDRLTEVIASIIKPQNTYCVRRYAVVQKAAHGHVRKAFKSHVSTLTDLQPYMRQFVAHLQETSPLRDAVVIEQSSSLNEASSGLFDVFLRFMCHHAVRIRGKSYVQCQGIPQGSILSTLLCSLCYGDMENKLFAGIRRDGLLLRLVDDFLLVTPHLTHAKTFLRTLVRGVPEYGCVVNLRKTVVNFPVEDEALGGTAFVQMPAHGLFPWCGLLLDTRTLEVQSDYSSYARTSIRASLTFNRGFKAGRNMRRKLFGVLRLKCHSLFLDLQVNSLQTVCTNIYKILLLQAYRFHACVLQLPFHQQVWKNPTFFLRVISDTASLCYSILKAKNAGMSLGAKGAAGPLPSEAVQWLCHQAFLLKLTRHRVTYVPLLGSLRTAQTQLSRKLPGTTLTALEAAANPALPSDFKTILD

[3] = Selectivity index, ratio of IC50 for Taq polymerase to IC50 for telomerase
[4] = molecular target: T1, Telomerase reverse transcriptase; assay: Inhibition of telomerase in JR8 cell extract by TRAP assay; assay type: cell-free
HT-29 = assay: Cytotoxicity against human HT29 cells by MTT assay; assay type: cell-based

Row | SMILES | IC50 (NCI-H460) | IC50 [1] | Activity [2] | Selectivity index [3] | IC50 [4] | IC50 (HT-29)
1 | C[N+](C)(C)CCN1C(=O)c2cccc3cccc(c23)C1=O | ≥ 100 µM | 22 µM | inactive | – | – | –
2 | CN(C)CCN1C(=O)c2ccc3c4c(ccc(c24)C1=O)C(=O)N(CCN(C)C)C3=O | 0.16 µM | 1.5 µM | inactive | – | – | –
3 | C[N+](C)(C)CCN1C(=O)c2ccc3c4ccc5c6c(ccc(c7ccc(c2c37)C1=O)c64)C(=O)N(CC[N+](C)(C)C)C5=O | ≥ 100 µM | 0.15 µM | – | 4.2 | 0.03 µM | ≥ 100 µM
4 | C[N+](C)(C)CCN1C(=O)c2ccc3c4c(ccc(c24)C1=O)C(=O)N(CC[N+](C)(C)C)C3=O | 2.21 µM | 5 µM | – | 2 | 2.5 µM | 3.24 µM
5 | CN(C)CCN1Cc2ccc3c4c(ccc(c24)C1)CN(CCN(C)C)C3 | ≥ 100 µM | 25 µM | inactive | – | – | 15.2 µM
6 | C[N+](C)(C)CCCN1C(=O)c2ccc3c4c(ccc(c24)C1=O)C(=O)N(CCC[N+](C)(C)C)C3=O | 1.14 µM | 5 µM | – | 2 | 2.5 µM | 8.89 µM
7 | O=C1c2ccc3c4ccc5c6c(ccc(c7ccc(c2c37)C(=O)N1CCNCCO)c64)C(=O)N(CCNCCO)C5=O | 2.62 µM | 0.2 µM | – | 2 | 0.06 µM | 1.17 µM
8 | O=C1c2ccc3c4ccc5c6c(ccc(c7ccc(c2c37)C(=O)N1CCN1CCCCC1)c64)C(=O)N(CCN1CCCCC1)C5=O | ≥ 100 µM | 5 µM | – | 25 | 0.2 µM | 9.02 µM
9 | CN(C)CCCN1C(=O)c2ccc3c4c(ccc(c24)C1=O)C(=O)N(CCCN(C)C)C3=O | 0.42 µM | 6.4 µM | – | 1.8 | 3.5 µM | 0.13 µM
10 | O=C1c2ccc3c4c(ccc(c24)C(=O)N1CCNCCO)C(=O)N(CCNCCO)C3=O | 9.3 µM | 5.8 µM | inactive | – | – | 11.7 µM
11 | CN(C)CCN1C(=O)c2ccc3c4ccc5c6c(ccc(c7ccc(c2c37)C1=O)c64)C(=O)N(CCN(C)C)C5=O | 2.3 µM | 0.9 µM | – | 5.6 | 0.16 µM | 0.23 µM
12 | CN1Cc2ccc3c4c(ccc(c24)C1)CN(C)C3 | ≥ 100 µM | > 40 µM | inactive | – | – | ≥ 100 µM
13 | CN(C)CCN1C(=O)c2cccc3cccc(c23)C1=O | 3.42 µM | > 40 µM | inactive | – | – | 5.05 µM
14 | CN(C)CCN1Cc2cccc3cccc(c23)C1 | ≥ 100 µM | > 40 µM | inactive | – | – | ≥ 100 µM
15 | c1cc2c3ccc4c5c(ccc(c6ccc7c(c1CN(CCN1CCCCC1)C7)c26)c53)CN(CCN1CCCCC1)C4 | 28.1 µM | 10 µM | – | 25 | 0.4 µM | 5.4 µM
